The values that follow come from patent US11318141B2, “Methods and compositions related to STK1-targeted small molecules as antibiotic resistance breakers” (Ohio State Innovation Foundation, priority 2017, dated 2022).

The structures appear in SMILES notation.

Data set [1] deals with S. aureus MW2 wild-type. In words: Serial passage at suboptimal dose (10 generations), stk1 PCR and DNA sequencing. It is filed as cell-based, Staphylococcus aureus. As to conditions: 25 μM Inh2-B1 alone or with 3 μM Ceftriaxone or 3 μM Cefotaxime, 10 generations. On the procedure:
Since the STK1 is not essential for bacterial survival and its absence results in retardation of growth, an end-point bactericidal assay was done, employing the Checkerboard titration method followed by a time-to-kill assay using the broth dilution method. The 96-well plate-based checkerboard titration assays were performed using the fixed number of CFUs of MW2 strain, and the survival of the bacteria was measured on solid agar plates as an end-point result. […] The cut-off value to designate clinical isolates of S. aureus for antibiotics, including Ceftriaxone (TX) and Cefotaxime (CT) as susceptible, is less than 4 μg/ml (i.e., <4.8 μM of TX, and <7 μM of CT). […] CFU counts of MW2-WT grown in the presence of various concentrations of Inh2-B1 were examined over a period of 16 h. […] Similarly, it was also determined CFU counts of MW2-WT and MW2ΔSTK1 strains each grown in the absence or the presence of 50 μM of Inh2-B1 and 1.5 μM Ceftriaxone (1 μg/ml) or […] Cefotaxime (1 μg/ml) for 16 h employing the broth dilution method. […] Further, to address whether MW2 or STK1 could become refractory to a potential combined therapy, the S. aureus MW2 wild-type strain was grown in the presence of suboptimal dose of Inh2-B1 alone and combination with Ceftriaxone and Cefotaxime (25 μM Inh2-B1 and 3 μM of Ceftriaxone or 3 μM Cefotaxime) for consecutive 10 generations.

The subject of data set [2] is S. aureus MW2-WT. As to the kind of experiment: Time-to-kill assay (OD and CFU counts over 16 h), broth dilution. It is filed as cell-based, Staphylococcus aureus. As for the experimental part:
FIGS. 4A-F show. […] Optical Density and corresponding Colony forming units of (C and D) MW2-WT and (E and F) MW2ΔSTK1 cultures in the presence or absence 50 μM Inh2-B1, 1.51 μM (1 μg/ml) Ceftriaxone, 2.125 μM (1 μg/ml) Cefotaxime, and combination of Inh2-B1 plus Ceftriaxone, and Inh2-B1 plus Cefotaxime. The experiments were carried out as described in the Materials and Method section using Muller-Hinton broth and seeded with 4×10^6 CFUs of S. aureus MW2-Wild type or MW2ΔSTK1 strains per well. Each data points represent Mean±S.D. P values of significance (**=<0.01, ***=<0.001) were determined using the t-test with Welch's corrections. NS—Not significant.
Subsequently, the susceptibility of S. aureus MW2 strain to Ceftriaxone, Cefotaxime, Inh2, and Inh2-B1 was confirmed by the CLSI recommended serial dilution method using Muller Hinton broth. Minimum bactericidal activity (MBC) was measured using Muller-Hinton agar. Changes in the MBC of Ceftriaxone/Cefotaxime in the presence of serially diluted Inh2-B1 was determined in two steps. Initial screening was carried out using the Checkerboard method using Muller-Hinton agar (FIG. 15). […] Subsequent time to kill assays were carried out using 50 μM Inh2-B1 and Ceftriaxone. Cefotaxime (1 μg/ml) in a final volume of 250 μl using a sterile 96-well (U-bottom) microtiter plate over a period of 16 h at 37° C. under constant rotation (120 rpm). Optical density and corresponding CFU counts were measured at every two-hour interval up to 8 hours with a final overnight reading at the end of incubation period. CFU counts were measured using appropriate dilution of 10 μl of properly mixed samples at each time interval. All experiments were performed in three biological replicates and the statistical analysis of the results obtained at each time point was carried out by the non-parametric t-test with Welch's correction using GraphPad Prism 6 software.
(In broth dilution the organism is exposed to a series of concentrations in liquid medium.)

Data set [3] in a line: Stability in serum and body fluid. The data set is classed as in vitro ADME.
The test system of data set [4] is S. aureus MW2-WT. In words: S. aureus mouse septicemia model, therapeutic study. It is filed as in vivo, CD-1 mice. As for the experimental part:
The virulence potential of the wild-type S. aureus MW2 wild-type and corresponding MW2ΔSTK1 and MW2ΔSTP1 mutants was assessed using the mouse-septicemia model. CD-1 mice (5 weeks old, 20-22 g. Charles River Laboratories, ten female mice/group and housed in a group of 5 mice/cage) were lightly anesthetized with isoflurane and injected retro-orbitally with the S. aureus MW2 or isogenic MW2Δstk1 mutant (4×10^8 CFU/0.1 ml of PBS). […] For therapeutic studies, the animals were first challenged with MW2-WT strain as described above and subsequently administered with antibiotic and/or small molecule compounds. The latter was started 4 h after the challenge and subsequently 12 h apart for 4 days post infection. Thus, Inh2-B1 (5 mg/kg body weight in 0.3 ml vehicle buffer), Ceftriaxone (10 and 25 mg/kg body weight in 0.3 ml vehicle buffer). Cefotaxime (10 mg/kg body weight), combination of Ceftriaxone (10 mg and 25 mg/kg body weight in 0.3 ml vehicle buffer) or Cefotaxime (10 mg/kg body weight) with Inh2-B1 (5 mg/kg body weight in 0.3 ml vehicle buffer), or 0.3 ml of vehicle-buffer (50 mM Tris/HCl, pH 8.8, 1.67% [v/v] DMSO). Early removal and euthanasia criteria were applied to all experimental mice showing penultimate sign(s) of the unrecoverable stage of illness, including ruffled skin with a hunch back, loss of more than 20% of body mass as compared to unchallenged mice receiving mock treatment, dyspnea, and labored gasping. All experiments were performed twice. Data were combined, and percentage survival in each group was statistically evaluated by the Log-Rank test (Kaplan-Meier) using the GraphPad Prism 6 software. P<0.05 was treated as a significant difference. On Day 3 P.I., 3-6 mice from different groups receiving treatment with a single antibiotic or combination therapy were euthanized and sacrificed, and kidneys were […] for determining the bacterial load, which was determined by counting the colony forming units in the homogenized tissue in sterile PBS buffer.

In data set [5] the test system is S. aureus MW2ΔSTK1 biofilms. As to the kind of experiment: Biofilm formation, crystal violet stain method. The data set is classed as cell-based, Staphylococcus aureus. To be noted: 25 μM, further 48 h.
Where [6] appears, read: Inh2-B1 5 mg/kg plus Cefotaxime 10 mg/kg.

With `COC(=O)c1ccc2c(=O)[nH]c3c(C(=O)Nc4ccccc4)sc(=S)n3c2c1` [Inh2-B1, Methyl 5-oxo-3-(phenylcarbamoyl)-1-thioxo-4,5dihydro[1,3]thiazolo[3,4-a]quinazoline-8-carboxylate], the “changes in the stk1 gene of the passaged strain” value in data set [1] was “did not show any changes in the stk1 gene”. Also, in data set [2] (100 μM Inh2-B1, 16 h), the “log increase in growth from starting inoculum” value is listed as “more than 3 log”. For the same compound, the “CFU count of MW2-WT after growth” value in data set [2] (100 μM Inh2-B1, 16 h, starting inoculum 4×10^6 CFU) was 1.8±1.0×10^9 CFU. Besides, the “growth pattern of the MW2 wild-type in the presence of Inh2-B1” value in data set [2] (FIGS. 4A and 4B, mimicked MW2ΔSTK1) is listed as “slightly retarded”. For the same compound, the “growth of the MW2 wild-type, mixture” value in data set [2] (mixture of 1.5 μM Ceftriaxone (1 μg/ml) and 50 μM Inh2-B1) was “dramatically inhibited”. Also, in data set [2] (only 50 μM Inh2-B1, only 1.5 μM Ceftriaxone (1 μg/ml) or only 3 μM Cefotaxime (1 μg/ml), 16 h), the “growth pattern of the wild-type, single agent” value was “remained unaltered”. Also, the “log reduction in comparison to the wild-type” value in data set [2] (very high concentration (100 μM) of Inh2-B1) was around 2 log. Also, in data set [3], the “stability in the serum and body fluid, such as peritoneal fluid” value was “remain stable”. In data set [4] (setting [6]), the “number of survived animals at the end of 10 days, Cefotaxime combination compared with Ceftriaxone combination” value is on record as “significantly low” and the “survival of mice, combination therapy with Cefotaxime (Inh2-B1+CT)” value was “significantly prolonged the survival of mice”. Moreover, in data set [4] (Inh2-B1 5 mg/kg plus Ceftriaxone 10 or 25 mg/kg i.p., ten days), the “survival, combination therapy with Ceftriaxone” value is listed as 60%. Further, in data set [4] (day 3 P.I., combined therapy (Inh2-B1 with Ceftriaxone or Cefotaxime) vs single or no therapy), the “S. aureus MW2 burden in kidneys” value is “significantly low”. The “effect on preformed biofilms” value in data set [5] is “did not affect biofilms of MW2ΔSTK1”.
